Results from patent publication US8697694B2, “Substituted pyridine and pyrimidine derivatives and their use in treating viral infections” (priority 2008, dated 2014).

system: HCV replicon cells; experiment: Cell-based HCV replicon assay (replicon RNA level by real time PCR, Taqman); settings: HCV replicon cells, harvested day 3, replicon RNA by real time PCR; reported as range class; read-out: EC90 (μM) range
Outline: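 Readout: ΔCT between NS5B replicon RNA and GAPDH by real-time RT-PCR in lysates harvested on day 3, fitted sigmoidally; EC50 at ΔCT=1, EC90 at ΔCT=3.2. Compounds tested at ten 2-fold dilutions from 25 μM to 1 μM start, 10% FBS, 0.5% DMSO.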

| Compound | EC90 [µM] |
| --- | --- |
| COc1cc2cc(-c3c(Cl)nc(N(C)C)nc3N[C@@H]3C[C@H](CO)[C@@H](O)[C@H]3O)oc2c(C)n1 [Example 13] | > 5 |

same assay, conditions: HCV replicon cells, replicon RNA level by real time PCR, harvested day 3; read-out: EC90 (μM) range

| Compound | EC90 [µM] |
| --- | --- |
| Cc1nc(N[C@H](C)c2ccc(OC(F)(F)F)cc2)nc(N[C@@H]2C[C@H](C(C)O)[C@@H](O)[C@H]2O)c1-c1nc2ccccc2s1 (single isomer, unassigned) [Example 1646] | 0.5 to 5 |

same assay, conditions: Hepatitis C virus, 72 h, HCV replicon cells, harvested day 3, replicon RNA by real time PCR; given as number; read-out: EC90 (μM) range

| Compound | EC90 [µM] |
| --- | --- |
| CCOc1cc2cc(-c3c(C)nc(NCc4cc(OC)cc(OC)c4)nc3N[C@@H]3C[C@H](CO)[C@@H](O)[C@H]3O)oc2c(C)n1 [Example 36] | 0.01 |
| Cc1nc(NCC(C)(C)C)nc(N[C@@H]2C[C@H](CO)[C@@H](O)[C@H]2O)c1-c1cc2cc(OCC3CC3)ncc2o1 [Example 58] | 1 |
| CCCOc1cc2cc(-c3c(C)nc(NCC(C)(C)C)nc3N[C@@H]3C[C@H](CO)[C@@H](O)[C@H]3O)oc2cn1 [Example 61] | > 1 |

same assay, conditions: Hepatitis C virus, 72 h, HCV replicon cells, harvested day 3, replicon RNA by real time PCR; reported as range class; read-out: EC90 (μM) range

| Compound | EC90 [µM] |
| --- | --- |
| Nc1nc(Cl)c(-c2cc3ccccc3s2)c(N[C@@H]2C[C@H](CO)[C@@H](O)[C@H]2O)n1 [Example 102] | > 5 |
| CCN(CC)c1nc(Cl)c(-c2nc3ccccc3s2)c(N[C@@H]2C[C@H](CO)[C@@H](O)[C@H]2O)n1 [Example 411] | 0.5 to 5 |
| Nc1nc(Cl)c(-c2ccccc2Oc2ccccc2)c(N[C@@H]2C[C@H](CO)[C@@H](O)[C@H]2O)n1 [Example 103] | > 5 |
| CCNc1nc(Cl)c(-c2nc3ccccc3s2)c(N[C@@H]2C[C@H](CO)[C@@H](O)[C@H]2O)n1 [Example 412] | < 0.5 |
| Nc1nc(Cl)c(-c2cccs2)c(N[C@@H]2C[C@H](CO)[C@@H](O)[C@H]2O)n1 [Example 153] | > 5 |
| CNc1nc(Cl)c(-c2nc3ccccc3s2)c(N[C@@H]2C[C@H](CO)[C@@H](O)[C@H]2O)n1 [Example 403] | < 0.5 |

same assay, conditions: Hepatitis C virus, 72 h, HCV replicon cells, harvested on day 3, replicon RNA by real time PCR; calculated EC90 reported as range class; read-out: EC90 (μM) range

| Compound | EC90 [µM] |
| --- | --- |
| CCOCCNc1nc(C)c(-c2cc3cc(CC)ncc3o2)c(N[C@@H]2C[C@H](CO)[C@@H](O)[C@H]2O)n1 [Example 515] | < 0.5 |
| Cc1cc2cc(-c3c(Cl)nc(NCC4CCCCC4)nc3N[C@@H]3C[C@H](CO)[C@@H](O)[C@H]3O)oc2c(C)n1 [Example 460] | < 0.5 |
| Cc1nc(NCC(C)(C)C)nc(N[C@@H]2C[C@H](CO)[C@@H](O)[C@H]2O)c1-c1nc2ccccc2s1 [Example 437] | < 0.5 |
| Cc1nc(NCC2CCOCC2)nc(N[C@@H]2C[C@H](CO)[C@@H](O)[C@H]2O)c1-c1nc2ccccc2s1 [Example 449] | < 0.5 |
| Cc1nc(NCc2cccnc2)nc(N[C@@H]2C[C@H](CO)[C@H]3OC(C)(C)O[C@H]32)c1-c1nc2ccccc2s1 [Example 463] | < 0.5 |
| CCCCCNc1nc(C)c(-c2cc3cc(CCC)nc(C)c3o2)c(N[C@@H]2C[C@H](CO)[C@@H](O)[C@H]2O)n1 [Example 448] | < 0.5 |
| Cc1nc(NCC(F)(F)F)nc(N[C@@H]2C[C@H](CO)[C@@H](O)[C@H]2O)c1-c1nc2cc(N(C)C)ccc2s1 [Example 247] | < 0.5 |
| COC(C)(C)CNc1nc(C)c(-c2nc3ccccc3s2)c(N[C@@H]2C[C@H](CO)[C@H]3OC(C)(C)O[C@H]32)n1 [Example 471] | < 0.5 |
| CCc1cc2cc(-c3c(C)nc(NCc4ccco4)nc3N[C@@H]3C[C@H](CO)[C@H]4OC(C)(C)O[C@H]43)oc2cn1 [Example 704] | < 0.5 |
| COc1cc2cc(-c3c(C)nc(NCc4ccccn4)nc3N[C@@H]3C[C@H](CO)[C@H]4OC(C)(C)O[C@H]43)oc2c(C)n1 [Example 349] | 0.5 to 5 |
| Cc1nc(NCc2ccco2)nc(N[C@@H]2C[C@H](CO)[C@@H](O)[C@H]2O)c1-c1nc2ccccc2s1 [Example 470] | < 0.5 |
| Cc1csc(CNc2nc(C)c(-c3nc4ccccc4s3)c(N[C@@H]3C[C@H](CO)[C@H]4OC(C)(C)O[C@H]43)n2)c1 [Example 477] | < 0.5 |

same assay, conditions: Hepatitis C virus, 72 h, HCV replicon cells, replicon RNA level by real time PCR (Taqman), day 3; calculated EC90; read-out: EC90 (μM) range

| Compound | EC90 [µM] |
| --- | --- |
| Cc1nc(NCCc2ccc(C(C)(C)C)cc2)nc(N[C@@H]2C[C@H](CO)[C@@H](O)[C@H]2O)c1-c1nc2cnccc2s1 [Example 2012] | < 0.5 |
| COc1cc(CCNc2nc(C)c(-c3nc4cnccc4s3)c(N[C@@H]3C[C@H](CO)[C@H]4OC(C)(C)O[C@H]43)n2)cc(OC)c1 [Example 2009] | < 0.5 |
| Cc1nc(NCC(F)(F)F)nc(N[C@@H]2C[C@H](CO)[C@@H](O)[C@H]2O)c1-c1nc2cnccc2o1 [Example 2001] | 0.5 to 5 |

same assay, conditions: Hepatitis C virus, 72 h, HCV replicon cells, replicon RNA level by real time PCR (Taqman), harvested on day 3; calculated EC90 reported as range class; read-out: EC90 (μM) range

| Compound | EC90 [µM] |
| --- | --- |
| COCCNC[C@H]1C[C@@H](Nc2nc(NCC(F)(F)F)nc(C)c2-c2nc3ccccc3s2)[C@H](O)[C@@H]1O [Example 1069] | 0.5 to 5 |
| Cc1nc(NCC(F)(F)F)nc(N[C@@H]2C[C@H](CN3CCCC3)[C@@H](O)[C@H]2O)c1-c1nc2ccccc2s1 [Example 1017] | 0.5 to 5 |
| CCOc1nc(C)cc2cc(-c3c(C)nc(NC(C)c4ccc(C)cc4)nc3N[C@@H]3C[C@H](CO)[C@@H](O)[C@H]3O)oc12 (some centres unmarked) [Example 1249] | 0.5 to 5 |
| Cc1nc(NCc2cc(Cl)cc(Cl)c2)nc(N[C@@H]2C[C@H](CO)[C@@H](O)[C@H]2O)c1-c1nc2ccccc2s1 [Example 1114] | 0.5 to 5 |
| COc1cc(CNc2nc(C)c(-c3nc4ccccc4s3)c(N[C@@H]3C[C@H](CO)[C@@H](O)C3)n2)cc(OC)c1 [Example 1241] | < 0.5 |
| CCOCCNc1nc(C)c(-c2nc3cc(OC(F)F)c(OC(F)F)cc3s2)c(N[C@@H]2C[C@H](CO)[C@@H](O)[C@H]2O)n1 [Example 1002] | 0.5 to 5 |
| Cc1nc(NCC(C)(C)O)nc(N[C@@H]2C[C@H](CO)[C@@H](O)[C@H]2O)c1-c1nc2ccccc2s1 [Example 1014] | < 0.5 |
| Cc1ccc([C@@H](C)Nc2nc(C)c(-c3nc4ccccc4s3)c(N[C@@H]3C[C@H](CO)[C@@H](O)[C@H]3O)n2)cc1 [Example 1234] | > 5 |
| CCOCCCNc1nc(C)c(-c2nc3ccccc3s2)c(N[C@@H]2C[C@H](CO)[C@@H](O)[C@H]2O)n1 [Example 1041] | 0.5 to 5 |
| CCOCCNc1nc(C)c(-c2nc3cnccc3s2)c(N[C@@H]2C[C@H](CO)[C@@H](O)[C@H]2O)n1 [Example 525] | < 0.5 |
| COc1cc(Nc2nc(C)c(-c3nc4ccccc4s3)c(N[C@@H]3C[C@H](CO)[C@@H](O)[C@H]3O)n2)cc(OC)c1 [Example 1230] | > 5 |
| COc1cccc2sc(-c3c(C)nc(NCC(F)(F)F)nc3N[C@@H]3C[C@H](CO)[C@@H](O)[C@H]3O)nc12 [Example 1070] | 0.5 to 5 |
| Cc1nc(NCC2CC2)nc(O[C@@H]2C[C@H](CO)[C@@H](O)[C@H]2O)c1-c1nc2ccccc2s1 [Example 1132] | > 5 |
| Cc1nc(NCC2CC2)nc(N[C@@H]2C[C@H](CO)[C@@H](O)[C@H]2O)c1-c1nc2cc(OC(F)F)c(OC(F)F)cc2s1 [Example 1006] | 0.5 to 5 |
| COc1cnccc1Nc1nc(C)c(-c2nc3ccccc3s2)c(N[C@@H]2C[C@H](CO)[C@H]3OC(C)(C)O[C@H]32)n1 [Example 1130] | > 5 |
| CNc1ccc2oc(-c3c(C)nc(NCC(F)(F)F)nc3N[C@@H]3C[C@H](CO)[C@@H](O)[C@H]3O)nc2c1 [Example 1064] | > 5 |
| CCNc1nc(C)c(-c2nc3ccccc3s2)c(N[C@@H]2CC(C(C)(F)F)[C@@H](O)[C@H]2O)n1 (single isomer, unassigned) [Example 1074] | 0.5 to 5 |

same assay, conditions: Hepatitis C virus, 72 h, HCV replicon cells, replicon RNA level by real time PCR, harvested day 3; read-out: EC90 (μM) range

| Compound | EC90 [µM] |
| --- | --- |
| Cc1nc(NCC2CC2)nc(N[C@@H]2C[C@H](C)[C@@H](O)[C@H]2O)c1-c1nc2cnccc2s1 [Example 1634] | < 0.5 |
| Cc1ccc([C@@H](C)Nc2nc(C)c(-c3nc4c(OCC5CC5)nccc4s3)c(N[C@@H]3C[C@H](CO)[C@@H](O)[C@H]3O)n2)cc1 [Example 1339] | < 0.5 |
| Cc1nc(NC2CC2)nc(N[C@@H]2C[C@H](C(C)O)[C@@H](O)[C@H]2O)c1-c1nc2c(C)nccc2s1 (some centres unmarked) [Example 1398] | < 0.5 |
| Cc1ccccc1[C@H](Nc1nc(C)c(-c2nc3c(C)nccc3s2)c(N[C@@H]2C[C@H](CO)[C@@H](O)[C@H]2O)n1)C(F)(F)F [Example 1539] | < 0.5 |
| CCNC(=O)OC[C@H]1C[C@@H](Nc2nc(NCC(F)(F)F)nc(C)c2-c2nc3ccccc3s2)[C@H](O)[C@@H]1O [Example 1628] | < 0.5 |
| Cc1nc(N[C@H](C)C2CC2)nc(N[C@@H]2CC[C@@H](O)[C@@]2(C)O)c1-c1nc2c(C)nccc2s1 [Example 1817] | < 0.5 |
| COC(=O)NC[C@H]1C[C@@H](Nc2nc(NCC(F)(F)F)nc(C)c2-c2nc3ccccc3s2)[C@H](O)[C@@H]1O [Example 1522] | 0.5 to 5 |
| Cc1nc(N[C@H](C)C(F)(F)F)nc(N[C@@H]2C[C@H](CO)[C@@H](O)[C@H]2O)c1-c1nc2c(C)nccc2s1 [Example 1351] | < 0.5 |
| Cc1nc(NCC2CC2)nc(N[C@H]2[C@H](O)CC[C@@H]2O)c1-c1nc2ccccc2s1 [Example 1627] | > 5 |
| CCCc1nccc2sc(-c3c(C)nc(N[C@H](C)C4CC4)nc3N[C@@H]3C[C@H](CNS(C)(=O)=O)[C@@H](O)[C@H]3O)nc12 [Example 1387] | < 0.5 |
| Cc1ccsc1CCNc1nc(C)c(-c2nc3ccccc3s2)c(N[C@@H]2C[C@H](CO)[C@@H](O)[C@H]2O)n1 [Example 1706] | 0.5 to 5 |
| Cc1nc(NCC(F)(F)F)nc(N[C@@H]2C[C@H](CNS(=O)(=O)CC(F)(F)F)[C@@H](O)[C@H]2O)c1-c1nc2ccccc2s1 [Example 1520] | 0.5 to 5 |
| Cc1nc(C#N)nc(N[C@@H]2C[C@H](CO)[C@@H](O)[C@H]2O)c1-c1nc2ccccc2s1 [Example 1904] | > 5 |
